Assay [1] has as its target T1, PU.1 (Mus musculus, UniProt P17433).
T1 construct: endogenous in cells; host or cells: BV2 PU.1-Luciferase (mouse microglial BV2 with a 5xLBB-luciferase reporter integrated at ROSA26)
Put plainly: Luciferase assay (luminescence) in BV2 PU.1-Luciferase reporter cells. The conditions noted are these: luminescence reduction in BV2 PU.1-Luciferase cells, concentration-response, Hill's equation. It counts as cell-based. The text has this: PU.1 belongs to a group of transcription factors that all bind to the middle 5′-GGAA-3′ sequence. The flanking A/T rich sequence is crucial for conferring PU.1 selective binding. The flanking sequence requires unique structural properties of PU.1 and can therefore be targeted by drugs acting as allosteric inhibitors that prevent PU.1 from binding to the LBB. In order to achieve robust PU.1 binding, five tandem copies of the LBBs (5×LBB) were inserted into the luciferase promoter of the pGL4.23 plasmid. The region containing the five LBBs (5×LBB) was then subcloned into the pROSA26-1 plasmid (together with a PGKneo bpA plasmid for Neomycin/G418 resistance) that allows stable integration in chromosome 6 of the immortalized mouse microglial BV2 cell line (FIG. 2B). The stable cell line was created by selection with G418.
The BV2 PU.1-Luciferase cells (referred to as “cells” from here onward) were plated into a 384-well plate, using an automatic dispenser, 2000 cells per well in 30 μL of media composed of RPMI (Sigma-Aldrich), 10% FBS, 1% PenStrep (50 mg/mL) and 1% G418 (50 mg/mL) was plated. A robotic arm was used to transfer compounds in a 384-well format using a pin array into the plate containing the cells (here, 33 nL was transferred from a drug library containing 10 mM concentration of drugs for a final concentration of 10 μM per well). For reproducibility, each pin array with 384 compounds was added to 4 plates of cells. […] Subsequently, automatic of 30 μL of BrightGlo (Promega) was dispensed into 2 of the 4 plates, in order to lyse the cells and drive the luminescence reaction whereafter the luminescence intensity was measured by a plate reader (Perkin Elmer EnVision). The two other plates were fixed by automatically dispensing 30 μL of 10% formaldehyde with 2μL Hoechst per 1 mL formaldehyde which were left at room temperature for one hour, followed by plate reading (Acumen (TTPLabTech)). A compound transfer and treatment would be repeated if reproducibility between the luminescence plates and/or the fixed Hoechst plates was lacking. The drugs were selected and ranked according to the criteria described in FIG. 13. Luminescence values used were corrected for crosstalk. Hoechst values were total fluorescence area per well. Determination of a positive hit considered both the reduction of luminescence as well as a possible confounding reduction in cell viability. The formula used was y=(value−meanvalue)/stddev. […] Compounds were excluded if cell viability was reduced >2 standard deviations from the mean, using the same formula. The positive hits were then validated in multiple steps in order to identify true PU.1 inhibitors.
The degree of luminescence reduction of the hits was plotted with significant effective area under the curve in order to obtain an IC50.
Background: In a reporter assay the amount or activity of a reporter protein is the signal.

The test system of assay [2] is PU.1 dependent gene expression. Put plainly: RT-qPCR of mRNA levels in BV2 PU.1-Luciferase cells (validation round 3). It counts as cell-based, mouse. To be noted: 2-day treatment. The method, then: The Asinex1 and ChemDiv6 libraries contain molecules with unknown biological properties, but with low toxicity, high stability, and a broad structural diversity used to generate structure-activity-relationships (SAR) of the PU.1 inhibitors. […] In order to obtain the SAR, three rounds of validation were performed. In round 1, false-positive, non-specific luciferase quencher molecules were excluded using the commercially available HEK293 CMV-Luciferase line that constitutively expresses luciferase under the CMV promoter. In round 2, weak (non-significant) hits were eliminated according to degree of PU.1 inhibition in the absence of cell death. In round 3, drugs were selected that reduce PU.1-dependent gene expression with RT-qPCR.
(Quantitative PCR measures a nucleic acid by following its amplification.)

The values that follow come from US20220340983A1, “SYSTEMS AND ASSAYS FOR IDENTIFYING PU.1 INHIBITORS” (Massachustts Institute of Technology, priority 2019, published 2022).

What is called IC50 is the midpoint of a concentration-inhibition curve. Higher therefore signals a need for much substance.

Regarding `CC(C)(C)OC(=O)N1CCC(c2c(C(=O)Nc3ccc4c(c3)OCCO4)cnn2-c2ccccc2)CC1` [Compound 2C12], in assay [1], the IC50 was 2930 nM. Further, in assay [2], the “mRNA levels Apoe” value is 0.731 multiples of 1×, the “mRNA levels IL1β” value is 0.486 multiples of 1×, the “mRNA levels Lucif.” value is recorded as 0.597 multiples of 1× and the “mRNA levels Spi1” value is 0.736 multiples of 1×. Further, in assay [2], the “mRNA levels Trem2” value is given as 0.752 multiples of 1× and the “mRNA levels Tyrobp” value was 0.713 multiples of 1×.
For `Cc1c(Cl)cccc1-n1ncc(C(=O)Nc2ccc3c(c2)OCCO3)c1C1CCN(C(=O)OC(C)(C)C)CC1` [Compound 2D3], in assay [1], the midpoint of inhibition, the IC50, lay at 2650 nM. In assay [2], the “mRNA levels Apoe” value was 0.980 multiples of 1×, the “mRNA levels IL1β” value is 0.960 multiples of 1×, the “mRNA levels Lucif.” value is recorded as 0.480 multiples of 1× and the “mRNA levels Spi1” value is 0.922 multiples of 1×. In addition, in assay [2], the “mRNA levels Trem2” value is on record as 0.987 multiples of 1× and the “mRNA levels Tyrobp” value was 0.950 multiples of 1×.
In the case of `CCCCN(C)C(=O)C1CCCN(c2ncnc3onc(C)c23)C1` (centres unmarked) [Compound 2D5], half-maximal inhibition in assay [1] (IC50) was put at 2620 nM. For the same molecule, in assay [2], the “mRNA levels Apoe” value is reported as 1.400 multiples of 1×, the “mRNA levels IL1β” value is given as 0.287 multiples of 1×, the “mRNA levels Lucif.” value was 0.359 multiples of 1× and the “mRNA levels Spi1” value was 1.015 multiples of 1×. Besides, in assay [2], the “mRNA levels Trem2” value is recorded as 1.852 multiples of 1× and the “mRNA levels Tyrobp” value is reported as 2.257 multiples of 1×.
The molecule `CCOC(=O)Cn1c(=O)n(C2CCCCC2)c2nc(-c3cccc(F)c3)nc(C(N)=O)c21` [Compound 2E4] showed an IC50 in assay [1] of 136 nM. For the same molecule, in assay [2], the “mRNA levels Apoe” value was 0.841 multiples of 1×, the “mRNA levels IL1β” value is recorded as 1.077 multiples of 1×, the “mRNA levels Lucif.” value is reported as 0.404 multiples of 1× and the “mRNA levels Spi1” value is recorded as 1.377 multiples of 1×. In assay [2], the “mRNA levels Trem2” value is listed as 0.806 multiples of 1× and the “mRNA levels Tyrobp” value is reported as 1.141 multiples of 1×.
Regarding `CCCC(=O)Nc1nnc(SCc2cc(=O)c3ccc(C)cc3[nH]2)s1` [Compound 2E6], inhibition in assay [1] was half-maximal at 1620 nM (IC50). Moreover, in assay [2], the “mRNA levels Apoe” value is 1.170 multiples of 1×, the “mRNA levels IL1β” value is 0.810 multiples of 1×, the “mRNA levels Lucif.” value is listed as 0.379 multiples of 1× and the “mRNA levels Spi1” value was 1.046 multiples of 1×. In addition, in assay [2], the “mRNA levels Trem2” value is reported as 1.262 multiples of 1× and the “mRNA levels Tyrobp” value is 1.347 multiples of 1×.
In the case of `Cc1ccc(C(=O)Nc2nnc(SCc3cc(=O)c4c(C)ccc(C)c4[nH]3)s2)cc1` [Compound 2E7], it took 8050 nM to reach half-maximal inhibition in assay [1] (IC50). Besides, in assay [2], the “mRNA levels Apoe” value is reported as 1.076 multiples of 1×, the “mRNA levels IL1β” value is recorded as 0.887 multiples of 1×, the “mRNA levels Lucif.” value is 0.623 multiples of 1× and the “mRNA levels Spi1” value is reported as 0.926 multiples of 1×. In addition, in assay [2], the “mRNA levels Trem2” value is given as 0.854 multiples of 1× and the “mRNA levels Tyrobp” value is given as 0.927 multiples of 1×.
`Cc1ccc(C)c(N2CCN(C(=O)C3CCN(c4nc(-c5ccc(C(C)C)cc5)no4)CC3)CC2)c1` [Compound 2E10] showed an IC50 in assay [1] of 1340 nM. Also, in assay [2], the “mRNA levels Apoe” value is reported as 1.244 multiples of 1×, the “mRNA levels IL1β” value is recorded as 1.082 multiples of 1×, the “mRNA levels Lucif.” value is reported as 0.611 multiples of 1× and the “mRNA levels Spi1” value is 1.133 multiples of 1×. In addition, in assay [2], the “mRNA levels Trem2” value is 1.253 multiples of 1× and the “mRNA levels Tyrobp” value was 1.158 multiples of 1×.
For `Cc1nc(-c2ccc(S(=O)(=O)Nc3ccc(C)c(N(C)C)c3)cc2)co1` [Compound 2F3], in assay [1], the IC50 is 2290 nM. Further, in assay [2], the “mRNA levels Apoe” value is listed as 1.011 multiples of 1×, the “mRNA levels IL1β” value was 0.386 multiples of 1×, the “mRNA levels Lucif.” value is reported as 0.496 multiples of 1× and the “mRNA levels Spi1” value is given as 0.733 multiples of 1×. For the same molecule, in assay [2], the “mRNA levels Trem2” value is 0.790 multiples of 1× and the “mRNA levels Tyrobp” value is listed as 0.854 multiples of 1×.
